Laboratory results from paper PMC11187126, “Structure and dynamics of the pyroglutamylated RF-amide peptide QRFP receptor GPR103” (Nature Communications, 2024).
Like-named read-outs stand apart in the source and are kept apart here. No end group written: not given here.

Biological target: T1, GPR103 F322^7.43A (Homo sapiens, UniProt Q96P65, F322A)
T1 construct: we used human full-length QRFPR-encoding plasmids; expressed in transfected cells; host or cells: HEK293 cells (HEK293A in the flow cytometry section), pCAGGS vector
T1 sequence (Q96P65 1-431 F322A): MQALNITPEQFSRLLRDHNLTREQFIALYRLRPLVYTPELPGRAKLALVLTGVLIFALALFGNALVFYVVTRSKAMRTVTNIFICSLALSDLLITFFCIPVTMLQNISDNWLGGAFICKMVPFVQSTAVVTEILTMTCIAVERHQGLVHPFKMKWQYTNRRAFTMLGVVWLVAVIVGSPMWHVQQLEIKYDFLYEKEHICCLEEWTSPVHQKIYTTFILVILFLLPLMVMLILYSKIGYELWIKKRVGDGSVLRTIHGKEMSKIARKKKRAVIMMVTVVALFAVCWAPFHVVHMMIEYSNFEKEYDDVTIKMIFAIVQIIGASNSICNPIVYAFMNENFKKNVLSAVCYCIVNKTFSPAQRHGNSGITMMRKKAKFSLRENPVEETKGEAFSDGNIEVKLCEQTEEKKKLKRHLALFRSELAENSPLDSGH
Experiment: TGFα shedding assay; Exp. level WT (1:50)
Assay type: cell-based
Method: For the TGFα shedding assay and the flow cytometry analysis, we used human full-length QRFPR-encoding plasmids. Specifically, GPR103 was N-terminally modified with an HA signal sequence followed by a FLAG epitope and then a flexible linker ([…]; the FLAG epitope is underlined) and inserted into the pCAGGS vector. Plasmid encoding GPR103 mutants were generated using Quickchange Site-Directed Mutagensis kit (Agilent).
The TGFα shedding assay was performed as described previously with minor modifications. Plasmid transfection was performed in a 6-well plate with a mixture of 500 ng (per well in a 6-well plate) AP-TGFα-encoding plasmid and 200 ng GPR103-encoding plasmid. After 1-day culture, the transfected cells were harvested by trypsinization, pelleted by centrifugation at 190 × g for 5 min, and washed once with 5 mM HEPES (pH 7.4)-containing Hank’s Balanced Salt Solution (HBSS). After centrifugation, the cells were resuspended in 8 mL of the HEPES-containing HBSS. The cell suspension was seeded in a 96-well culture plate (cell plate) at a volume of 90 μL (per well hereafter) and incubated in a 37 °C incubator with 5% CO2 for 30 min. […] After spinning the cell plates at 190 × g for 2 min, 80 μL of conditioned media was transferred to an empty 96-well plate (conditioned media (CM) plate). Then, 80 μL of AP reaction solution (10 mM p-nitrophenylphosphate (p-NPP), 120 mM Tris-HCl (pH 9.5), 40 mM NaCl, and 10 mM MgCl2) was dispensed into the cell plates and the CM plates. Absorbance at 405 nm of the plates was measured using a microplate reader (SpectraMax 340 PC384, Molecular Devices) before and after 1-h incubation at room temperature. Ligand-induced AP-TGFα release was calculated by subtracting spontaneous AP-TGFα release signal from ligand-induced AP-TGFα release signal. The AP-TGFα release signals were fitted to a four-parameter sigmoidal concentration–response curve, using the Prism 10 software (GraphPad Prism). For each replicate experiment, the pEC50 parameter (negative logarithmic values of EC50 values) of the individual GPR103 mutants were normalized to that of the wild-type GPR103 performed in parallel, and resulting ∆pEC50 values were used to denote ligand response activity of the mutants. […]
Exp. le vel: WT (1:5 0)Exp. le vel: WT (1:5 0)Exp. le vel: WT (1:5 0)Exp. le vel: WT (1:2 0)Exp. le vel: WT (1:2 0)Exp. le vel: WT (1:1 0) […]
L1 4N - t e r mA F2 5N - t e r mA I 2 6N - t e r mA Y 2 9N - t e r mA C 9 82 .5 7A T10 22 .6 1A Exp . l eve l: WT (1 :5)Exp . l evel : >WT (1 :1)Exp. le vel: WT (1:2 0)Exp. le vel: WT (1:2 0)Exp. le vel: WT (1:5 0)Exp . l eve l: WT (1 :1) […]
Exp. le vel: WT (1:1 0)Exp. le vel: WT (1:2 0) C 1 1 83 .2 5AExp. le vel: WT (1:5 0)Exp. le vel: WT (1:5 0)Exp. le vel: WT (1:2 0)Exp . l eve l: WT (1 :5) […]
Exp. le vel: WT (1:5 0)Exp. le vel: WT (1:1 0)Exp. le vel: WT (1:5 0) E203ECL2AExp . l evel : >WT (1 :1)Exp. le vel: WT (1:5 0)Exp. le vel: WT (1:5 0) […]
Exp . l eve l: WT (1 :1) F28Exp. le vel: WT (1:5 0) C 2 8 56 .4 7AExp. le vel: WT (1:2 0) WExp. le vel: WT (1:2 0) F28Exp. le vel: WT (1:5 0)Exp . l evel : >WT (1 :1) […]
Exp. le vel: WT (1:5 0)Exp. le vel: WT (1:5 0) C 3 2 77 .4 8AExp . l eve l: WT (1 :5)Exp . l evel : >WT (1 :1)Exp . l evel : >WT (1 :1) […]
Suppl eme nt ary Figure 1 | Mutational analysis of GPR103. […]
mutants. Data are presented as mean values ± SEM, normally n=3-5; dots), each performed in triplicate. b-d Cell-surface expression (b) and QRFP26-in-duced activation of GPR103 (c, d) were analyzed by the flow cytometry and the TGFα shedding assay, respectively. From the concentration–response curves (a), Emax (c) and ΔpEC50 (d) values relative to the wild type were calculated. Colors in the mutant bars indicate an expression level matching to that of titrated wild type. Statistical analyses were performed using the ordinary one-way ANOVA followed by Dunnett tests with the expression-matched […]

Emax (Exp. #1): 46.65 % WT
Emax (Exp. #2): 35.03 % WT
Emax (Exp. #3): 42.29 % WT
Emax (mean, read-out: Emax): 41.3%
EC50 (n = 3): 24.5 nM
Emax (n = 3, read-out: Emax): 42.7 ± 2.8%
Substance: TSGPLGNLAEELNGYSRKKGGFSFRF-NH2 [QRFP26]
